In patent US7795311B2, “Methods and compositions for the management of soil-borne fungal diseases” (Pittsburg State University, priority 2007, dated 2010):
“And” between values parts separate entries of the source, which are not always exact repeats. Equal entries are not always repeated.

Legend:
[1] = test system: soil-borne fungal diseases; experiment: 1999 and 2000 foliar treatment field trial: viability and mortality data; type: in vivo, soybean; details: 1999 foliar treatment
Description: (§1) Foliar treatments were prepared on site. R1 and R4 Foliar Carbenoxolone 1000μ/mL treatments were prepared by adding 3.785 g Carbenoxolone to 1 gallon of water and mixed until dissolved. The mixture was then sprayed directly onto foliage using specialized CO2 pressurized aerosol spray equipment set at a spray rate of 1 gallon/100 ft for four (4), twenty-five (25) foot rows and two (2) rows wide.
FIGS. 1 and 3 depict the 1999 and 2000 Foliar Treatment Viability and Mortality Data. In 1999, the Carbenoxolone concentration was varied between 125 and 1000 μg/ml diluted in one gallon of water. The treatment composition was applied to the canopy of plants at various developmental stages (V-2, R-1 and R-6). The foliar application was accomplished using the pressurized boom-spray unit attached to a tractor at reproductive stage V-2 or R-1, or by a backpack spray unit at reproductive stage R-6. The mortality and viability data were collected at developmental stage R-8, usually around week eleven (11) or twelve (12) in the plant's lifecycle. Also shown in FIGS. 1 and 3, the percent mortalities were calculated based on the number of plants that died at twelve (12) weeks of growth as compared to the total number of seeds planted per treatment. The viability percentages as shown in FIGS. 1 and 3 were calculated from the total number of seeds planted per treatment, as compared to the viability data taken at three (3) weeks of growth. The seed germination rate was greater than 99% and was determined prior to planting. […] This appears unchanged from the untreated control, which had similar percentages. […] The Carbenoxolone treatment solution having 125 μg/ml has a mortality percentage of approximately 10.4% compared to a mortality percentage of an uncontrolled of 20%.
The […] foliar treatment using Cabenoxolone also had similar results as in 1999. The mortality percentage of plants treated with a Carbenoxolone solution decreased when compared to an untreated control.

[2] = test system: soil-borne fungal diseases; experiment: 1999/2000 foliar application: mean disease rating and percent mortality; type: in vivo, soybean; details: dead plants / germinated plants, week 11
Source text: Beginning at developmental stage V1, a visual disease rating was employed to determine the overall visual health of the plant based on foliar, pod and stem disease. The foliar disease rating system was based from the Soybean Diseases Atlas by the Southern Soybean Disease Workers (W. J. Walla, ed. 1979, Texas A&M University). A 1-5 rating system was utilized, wherein 1=0%, 2=25%, 3=50%, 4=75%, 5=100% based on leaf area affected by disease symptoms.
FIG. 2 illustrates the 1999 Mean Disease Rating for Each Foliar Application, Percent Mortality and the Statistical Significance as Measured by the Student-Newman-Keuls (“SNK”) Analysis. The disease ratings as shown in FIGS. 2 and 4 are an objective number rating assigned as a percentage of a plot infected having a rating scale of 1=0%, 2=25%, 3=50%, 4=75% and 5=100%. The SNK data comprising letters which are different are statistically significant from other letter assigned data sets, which allows the single year data to show how weather influences the outcome of the treatment. […] The mortality count was taken at week eleven (11) in the 1999 and 2000 growing seasons. As previously stated, the SNK statistical analysis illustrate the statistical significance of the data, wherein means with the same letter are not statistically different. […] Even lower, 1000 μg/ml of Carbenoxolone solution a mortality rate of 22%.

[3] = test system: Pythium, Phytophthora, Phomopsis and Rhizoctonia fungal pathogens; experiment: Field trial 2003-2005: soybean pre-emergence mortality by seed/foliar treatment; type: in vivo; parameters: pre-emergence mortality, average non-emergent seeds: concentration or dose not given beside the values
Source text: (§2) Test plots were organized into randomized block design consisting of fifteen (15) total treatments. Treatments included either a control group, a seed treatment, foliar treatment, or a combination seed and foliar treatment. Each treatment consisted of four (4), twenty-five (25) foot rows in each test plot. The fifteen (15) treatment blocks were planted in quadruplicate for a total of sixty (60) test plots. The test plots were labeled with numerical identification markers which represent the treatment, plot, and replication number. No samples were taken from the two (2) interior rows of each plot so that they could be used for counting plant mortality and harvested for seed yields. The two (2) outside rows were used to sample plants.
(§3) Seeds were treated with stock solutions of the following treatments. Carbenoxolone disodium salt 0, 125, 250, 500 and 1000 μg/L High Grade was utilized for management of Pythium, Phytophthora, Phomopsis and Rhizoctonia fungal pathogens. Gustafson's Magnacoat® (Gustafson, LLC, Plans, Tex.) was used as a seed-coating polymer in conjunction with the other treatment and as a control treatment. For example, stock solutions were prepared in 500 mL beakers as follows: […] High Grade was prepared by adding 0.105 g of 99% pure Carbenoxolone to 65 mL deionized water and mixing using a spatula until completely dissolved, then adding 35 mL Magnacoat® and 5 mL green Pro-lzed® colorant and mixing until homogenous for a total of 105 mL.
(§4) Seeds for each row were treated separately with compounds. A 2.1 mL sample was taken from the stock solution via pipette and placed in a 200 mL glass beaker. A single row seed sample was added to the beaker and the seeds were mixed with a glass stir rod until the seeds were completely covered. The samples were then spread onto a wax sheet and allowed to dry for one (1) to two (2) hours. Each treated seed sample was placed in a labeled twenty pound (20 lb), 4×6 inch manila coin envelope.
as §1
(§5) Germination data was taken at V1 by counting the emergent plants in the two (2) inner yield rows. Plant counts were used to compare with number of seeds planted to determine pre-emergence mortality due to soil-borne early season disease pressure. At the end of the growing season at developmental stage […] when plants were mature, but before full senescence, dead plants were counted. Plant counts were used to determine mortality data for the season caused by overall disease pressure.
In the yield rows, two-hundred and forty (240) seeds were planted per row in the yield rows at the beginning of the growing season, flanked by two (2) rows (two-hundred and forty (240) seeds in each row) for plant sampling. Rows were end trimmed to final twenty-five (25) foot rows with two-hundred (200) seed per row and eight (8) seeds per foot. Mortality data was determined only from the interior yield rows. An average of these pre-emergence mortality totals, (four-hundred (400) seeds in two (2) rows) for all four (4) repetitions was taken to represent pre-emergence mortality. Pre-emergence mortality averages for each treatment with calculated standard deviations are compared in FIG. 5. Pre-emergence mortality indicates the number of plants that died before emergence. Treatments were either untreated control seed or seeds treated with the polymer in combination with Carbenoxolone. Foliar treatments indicate that the same compound used as a seed treatment was then applied as a foliar spray at a set plant development stage (R1 or R4). […]

[4] = test system: Pythium, Phytophthora, Phomopsis and Rhizoctonia fungal pathogens; experiment: Field trial 2003-2005: soybean post-emergence mortality by seed/foliar treatment; type: in vivo; parameters: concentration or dose not given beside the values
Source text: as §2, §3, §4, §1, §5
Post-emergence mortality was obtained by totaling the number of dead plants at the end of the growing season as compared to the number of plants that successfully emerged. Plant mortality counts were taken at developmental stage R8, within the two (2) yield rows and an average of these mortality totals was obtained for all four (4) repetitions. Post-emergence mortality averages and standard deviations for all four (4) repetitions and treatments over three (3) years of testing are compared in FIG. 6. Post-emergence mortality indicates the number of plants that died within the growing season after emergence. Similar to FIG. 5, treatments were either untreated control seed or seeds treated with the polymer in combination with Carbenoxolone. Foliar treatments indicate that the same compound used as a seed treatment was then applied as a foliar spray at a set plant development stage (R1 or R4). The percentage is based on the average of V1 emerged viable seedlings counted compared to the R8 viable plants counted.

[5] = test system: Pythium, Phytophthora, Phomopsis and Rhizoctonia fungal pathogens; experiment: Field trial 2003-2005: soybean viability at R8 by seed/foliar treatment; type: in vivo; parameters: viability average: concentration or dose not given beside the values
Source text: as §2, §3, §4, §1
The viability data was obtained by totaling the number of healthy plants within the two (2) yield rows at the end of the growing season when plants reached developmental stage R8 and these totals were averaged and standard deviations calculated for all four (4) repetitions per treatment. […] Viability averages of all treatment repetitions for a growing year, for three (3) years of field-testing are compared in FIG. 7. Viability indicates the number of healthy plants at the end of the growing season. Similar to FIGS. 5 and 6, treatments were either untreated control seed or seeds treated with the polymer in combination with Carbenoxolone. Foliar treatments indicate that the same compound used as a seed treatment was then applied as a foliar spray at a set plant development stage (R1 or R4). Percentage is based on the average number of viable plants counted at R8.

[6] = Field trial 2003-2005: seed yield; type: in vivo, soybean
Source text: At the end of the growing seasons, marked by plant senescence, the two (2) interior yield rows were harvested using a Massey-Ferguson two-row experimental test, combined with an onboard computer processor for determining seed weight, seed moisture and collection of samples. Yield data included seed moisture and seed weight, which were used to determine the overall yield for each test plot.
Yield data was obtained from the two (2) yield rows of twenty-five (25) feet using a conversion equation which utilized the fraction of acreage predetermined test weight and adjusted moisture of the seeds harvested. Yield values represent bushels per acre adjusted for moisture and test weight. […] Multiple comparisons were tested at α=0.1. Again as with previous Figures, treatments were either untreated control seed or seeds treated with a seed coating polymer in combination with Carbenoxolone. Foliar treatments indicate that the same compound used as a seed treatment was then applied as a foliar spray at a set plant development stage (R1 or R4).

[7] = seed combined with R1 foliar, 2003
[8] = seed combined with R1 foliar, 2004
[9] = seed combined with R1 foliar, 2005
[10] = seed combined with R4 foliar, 2003
[11] = seed combined with R4 foliar, 2004
[12] = seed combined with R4 foliar, 2005
[13] = seed treatment (with polymer), 2003
[14] = seed treatment (with polymer), 2004
[15] = seed treatment (with polymer), 2005
[16] = seed treatment combined with R1 foliar, three years of testing

Compound: CC1(C)[C@@H](OC(=O)CCC(=O)O)CC[C@]2(C)[C@H]3C(=O)C=C4[C@@H]5C[C@@](C)(C(=O)O)CC[C@]5(C)CC[C@@]4(C)[C@]3(C)CC[C@@H]12 [Carbenoxolone, 3β-hydroxy-11-oxoolean-12-en-30-oic acid 3-hemisuccinate disodium]
- increase of viability percentage from the untreated control ([1]; 125 μg/ml): approximately 10%
- mortality percentage ([1]; 125 μg/ml): approximately 10.4%
- mortality rate ([1]; 1000 μg/ml, plants dead at 12 weeks vs seeds planted): approximately 20%
- viability rate ([1]; 1000 μg/ml, viability at 3 weeks vs seeds planted): approximately 80%
- mortality rate ([2]; foliar 500 μg/ml): 26%
- mortality rate ([2]; foliar 1000 μg/ml): 22%
- pre-emergence mortality, average non-emergent seeds ([3]; R1 foliar only (untreated seed), 2003): 27.50%
- pre-emergence mortality, average non-emergent seeds ([3]; R1 foliar only (untreated seed), 2004): 41.25%
- pre-emergence mortality, average non-emergent seeds ([3]; R1 foliar only (untreated seed), 2005): 27.08%
- pre-emergence mortality, average non-emergent seeds ([3]; R4 foliar only (untreated seed), 2003): 35.41%
- pre-emergence mortality, average non-emergent seeds ([3]; R4 foliar only (untreated seed), 2004): 43.75%
- pre-emergence mortality, average non-emergent seeds ([3]; R4 foliar only (untreated seed), 2005): 27.91%
- pre-emergence mortality, average non-emergent seeds [3, 7]: 30.0%
- pre-emergence mortality, average non-emergent seeds [3, 8]: 41.24%
- pre-emergence mortality, average non-emergent seeds [3, 9]: 30.0%
- pre-emergence mortality, average non-emergent seeds [3, 10]: 36.66%
- pre-emergence mortality, average non-emergent seeds [3, 11]: 42.5%
- pre-emergence mortality, average non-emergent seeds [3, 12]: 28.75%
- pre-emergence mortality, average non-emergent seeds [3, 13]: 26.25% and 26%
- average germination higher in 2003 compared to 2004 ([3]; seed treatment (with polymer), 2003 vs 2004): 17%
- pre-emergence mortality, average non-emergent seeds [3, 14]: 43.33% and 43%
- pre-emergence mortality, average non-emergent seeds [3, 15]: 29.16% and 29%
- post-emergence mortality average ([4]; R1 foliar only, 2003): 5.0%
- post-emergence mortality average ([4]; R1 foliar only, 2004): 1.6%
- post-emergence mortality average ([4]; R1 foliar only, 2005): 3.33%
- post-emergence mortality average ([4]; R4 foliar only, 2003): 6.25%
- post-emergence mortality average ([4]; R4 foliar only, 2004): 1.6%
- post-emergence mortality average ([4]; R4 foliar only, 2005): 3.33%
- post-emergence mortality average [4, 7]: 5.41% and 5%
- post-emergence mortality average [4, 9]: 3.33%
- post-emergence mortality average [4, 11]: 2.08%
- post-emergence mortality average [4, 12]: 2.5% and 2%
- post-emergence mortality average [4, 13]: 5.0%
- post-emergence mortality average [4, 14]: 2.08%
- post-emergence mortality average [4, 15]: 2.5%
- viability average ([5]; R1 foliar only, 2003): 77.08%
- viability average ([5]; R1 foliar only, 2004): 63.33%
- viability average ([5]; R1 foliar only, 2005): 77.5%
- viability average ([5]; R4 foliar only, 2003): 69.16%
- viability average ([5]; R4 foliar only, 2004): 60.83%
- viability average ([5]; R4 foliar only, 2005): 76.66%
- Dunnett's t Test analysis of viability data compared to the untreated control ([5]; seed combined with R1 foliar): statistically significant difference
- viability average [5, 7]: 74.58%
- viability average [5, 8]: 63.75%
- viability average [5, 9]: 74.58%
- viability average [5, 10]: 69.58%
- viability average [5, 11]: 62.08%
- viability average [5, 12]: 75.83%
- viability average ([5]; seed treatment (with polymer), 2003, plants at R8): 78.39%
- viability average ([5]; seed treatment (with polymer), 2004, plants at R8): 61.66%
- viability average ([5]; seed treatment (with polymer), 2005, plants at R8): 75.41%
- improvement of the average yield ([6]; 2003-2005, not statistically significant): approximately 1.5 bushels/acre
- increase of yield [6, 16]: 1.5 bushels per acre
- increase of yield compared to other treatments [6, 16]: 6.9%
